Laboratory results published in US20240025892A1 (priority 2020, published 2024).
Entries after “also recorded” stand apart in the source; their conditions may differ. Read-outs that look alike come from different tables or passages of the source.

Legend:
Recombinant SIK2 = Recombinant SIK2 (Homo sapiens (Human), UniProt Q9H0K1); test: biochemical; conditions: recombinant SIK2 2.5 nM, 1 μM ATP; read-out: SIK2 IC50
Experimental: (§1) Assays were performed in base reaction buffer (20 mM Hepes (pH 7.5), 10 mM MgCl2, 1 mM EGTA, 0.02% Brij35, 0.02 mg/mL BSA, 0.1 mM Na3VO4, 2 mM DTT, 1% DMSO). Compounds were dissolved in 100% DMSO in a 10 mM stock. […] Assays were performed for 20 minutes at room temperature, after which time ^33P-ATP (10 μCi/μL) was added followed by incubation for another 120 minutes at room temperature. Thereafter, radioactivity incorporated into the pEY peptide substrate was detected by filter-binding method. Kinase activity data were expressed as the percent remaining kinase activity in test samples compared to DMSO reactions. IC50 values and curve fits were obtained using Prism (GraphPad Software).

SIK3 = SIK3 (Homo sapiens (Human), UniProt Q9Y2K2); test: In vitro SIK3 kinase assay; assay type: biochemical
Experimental: as §1

CRTC2 (TORC2) = test: CRTC2 nuclear translocation (PathHunter U2OS); assay type: cell-based; conditions: maximal CRTC2 nuclear translocation, U2OS cells, 90 minutes, maximum dose 10 μM
Excerpt: PathHunter® Nuclear Translocation cell lines are engineered to co-express two fusion proteins: a) Enzyme Donor (ED) tagged target protein; b) an Enzyme Acceptor (EA) tagged TAZ domain, derived from the CBP/P300 transcription factor, that localizes to the nucleus. Activation of the signaling pathway induces translocation of the ED-tagged target protein into the nucleus, which will force complementation of the two enzyme fragments, and result in the formation of a functional enzyme that will hydrolyze substrate and generate a chemiluminescent signal. U2OS CRTC2 (TORC2) translocation assays were performed in 384 well plates at Eurofins DiscoverX (Freemont, CA). Cells were treated with compounds for 90 minutes in experimental duplicates in 5 point dose response format (4-fold serial dilutions with a maximum dose of 10 μM) followed by […] readout on an Envision 2104 Multilabel Reader. In all experiments, forskolin was used as a positive control and maximal CRTC2 nuclear translocation induced by each compound is expressed as a percentage of the signal stimulated by forskolin.
Representative data are shown in FIG. 4A and presented as percent of the positive control (forskolin) signal.

[1] = target: NanoLuc-SIK2 fusion in HEK293 cells (Homo sapiens (Human), UniProt Q9H0K1); test: cell-based
Experimental: Assays were performed at Reaction Biology Corporation (Malvern, PA) in HEK293 cells from ATCC in 384 well plate format using Promega's NanoBRET TE intracellular kinase assay platform. HEK293 cells transiently expressing NanoLuc-SIK2 fusion vector were seeded into 384 well plates. Cells were pre-treated with the NanoBRET Tracer K-4 and then treated with compounds for 60 minutes in 10 point dose response format. […] IC50 values were calculated and IC50 curves were plotted using the GraphPad Prism 4 program on a sigmoidal dose response equation.

RANKL = RANKL gene expression in Ocy454 cells (RT-qPCR); conditions: maximal RANKL fold induction versus DMSO, four hours;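 further: Ocy454 cells moved to 37 °C for osteocytic differentiation before compound exposure, RANKL mRNA by SYBR Green qRT-PCR, 2^−ΔΔCT with β-actin normalization, duplicate wells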
SIK1 = SIK1 (Homo sapiens (Human), UniProt P57059); test: In vitro SIK1 kinase assay; assay type: biochemical
Experimental: as §1

[2] = system: 12 week old female C57B6 mice, sham or OVX; test: Ovariectomy (OVX) mouse model of post-menopausal osteoporosis; assay type: in vivo
Excerpt: Recent reports have described the signaling pathway used by PTH in target cells in bone (see e.g., Wein et al, Nature Communications, 2016, 7:13176; Wein et al, Trends Endocrinol Metab. 2018; and Nishimori et al, J. Clin. Invest. 2019). One step in this cascade is that PTH signaling leads to PKA-dependent inhibition of salt inducible kinases (SIKs). Small molecule SIK inhibitors, such as YKL-05-099 (see e.g., Sundberg et al, ACS chemical biology, 2016; and Tarumoto et al, Blood, 2019), a tool compound that inhibits all 3 SIK isoforms, mimic the actions of PTH (see e.g., Wein et al, Nature Communications, 2016, 7:13176). The efficacy of YKL-05-099 has been tested in mice rendered hypo-gonadal by surgical removal of the ovaries, a model of post-menopausal osteoporosis. […] Therefore, mice were generated where SIK2/3 can be deleted ubiquitously in a tamoxifen-dependent manner to assess the safety and skeletal efficacy of selective SIK2/3 deletion in adult animals.

[3] = HEK293 cells, compounds for 60 minutes, read-out: SIK2 NanoBRET
[4] = mice, YKL-05-099 18 mg/kg once daily for 4 weeks

Sequence of Recombinant SIK2 (Q9H0K1 whole entry): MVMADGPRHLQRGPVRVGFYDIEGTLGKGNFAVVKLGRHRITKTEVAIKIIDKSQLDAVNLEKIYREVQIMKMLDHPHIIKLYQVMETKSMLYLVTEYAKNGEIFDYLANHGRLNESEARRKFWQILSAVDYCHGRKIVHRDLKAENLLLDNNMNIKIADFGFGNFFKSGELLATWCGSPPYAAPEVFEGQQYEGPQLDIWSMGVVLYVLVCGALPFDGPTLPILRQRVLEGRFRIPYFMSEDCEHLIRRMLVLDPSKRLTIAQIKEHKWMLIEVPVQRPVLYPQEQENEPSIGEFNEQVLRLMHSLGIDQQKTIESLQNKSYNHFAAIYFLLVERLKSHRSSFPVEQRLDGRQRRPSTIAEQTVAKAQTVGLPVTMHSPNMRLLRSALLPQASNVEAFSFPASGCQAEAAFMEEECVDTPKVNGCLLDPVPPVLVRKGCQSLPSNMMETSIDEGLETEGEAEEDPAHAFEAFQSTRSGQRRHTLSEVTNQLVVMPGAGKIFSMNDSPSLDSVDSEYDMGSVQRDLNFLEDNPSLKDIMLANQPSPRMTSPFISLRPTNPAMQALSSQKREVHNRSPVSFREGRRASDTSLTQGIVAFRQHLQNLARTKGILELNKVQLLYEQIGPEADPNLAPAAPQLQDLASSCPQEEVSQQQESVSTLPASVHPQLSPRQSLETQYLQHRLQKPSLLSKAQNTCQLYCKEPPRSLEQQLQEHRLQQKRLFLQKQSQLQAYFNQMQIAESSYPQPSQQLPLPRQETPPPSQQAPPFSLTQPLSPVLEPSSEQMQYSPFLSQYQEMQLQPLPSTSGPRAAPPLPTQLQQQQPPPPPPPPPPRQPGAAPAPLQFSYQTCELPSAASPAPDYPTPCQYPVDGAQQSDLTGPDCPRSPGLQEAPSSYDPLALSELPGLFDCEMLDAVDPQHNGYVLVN
Sequence of NanoLuc-SIK2 fusion in HEK293 cells (Q9H0K1 whole entry, the tested form may be a part): as the sequence (Q9H0K1 whole entry) above
Sequence of SIK1 (P57059 whole entry): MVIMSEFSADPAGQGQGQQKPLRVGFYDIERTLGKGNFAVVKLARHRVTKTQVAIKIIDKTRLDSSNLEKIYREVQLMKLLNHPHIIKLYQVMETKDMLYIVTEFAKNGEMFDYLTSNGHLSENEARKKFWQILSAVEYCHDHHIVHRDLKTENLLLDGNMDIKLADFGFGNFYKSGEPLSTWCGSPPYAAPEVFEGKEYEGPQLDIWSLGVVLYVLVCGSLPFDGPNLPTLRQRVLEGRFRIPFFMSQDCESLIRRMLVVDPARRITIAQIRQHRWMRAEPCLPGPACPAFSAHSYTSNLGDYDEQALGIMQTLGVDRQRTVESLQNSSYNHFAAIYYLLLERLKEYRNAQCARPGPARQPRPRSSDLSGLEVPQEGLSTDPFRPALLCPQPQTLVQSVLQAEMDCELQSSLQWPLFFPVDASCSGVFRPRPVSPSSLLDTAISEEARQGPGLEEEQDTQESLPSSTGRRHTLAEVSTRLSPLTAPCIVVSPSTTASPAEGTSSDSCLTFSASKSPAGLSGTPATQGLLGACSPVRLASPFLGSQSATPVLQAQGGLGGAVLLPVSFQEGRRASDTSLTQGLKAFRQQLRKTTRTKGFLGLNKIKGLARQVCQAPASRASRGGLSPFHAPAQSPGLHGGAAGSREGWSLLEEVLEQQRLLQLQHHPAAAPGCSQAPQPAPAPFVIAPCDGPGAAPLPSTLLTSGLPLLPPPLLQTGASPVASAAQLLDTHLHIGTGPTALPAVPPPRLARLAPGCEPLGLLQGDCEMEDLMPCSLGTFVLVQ
Sequence of SIK3 (Q9Y2K2 whole entry): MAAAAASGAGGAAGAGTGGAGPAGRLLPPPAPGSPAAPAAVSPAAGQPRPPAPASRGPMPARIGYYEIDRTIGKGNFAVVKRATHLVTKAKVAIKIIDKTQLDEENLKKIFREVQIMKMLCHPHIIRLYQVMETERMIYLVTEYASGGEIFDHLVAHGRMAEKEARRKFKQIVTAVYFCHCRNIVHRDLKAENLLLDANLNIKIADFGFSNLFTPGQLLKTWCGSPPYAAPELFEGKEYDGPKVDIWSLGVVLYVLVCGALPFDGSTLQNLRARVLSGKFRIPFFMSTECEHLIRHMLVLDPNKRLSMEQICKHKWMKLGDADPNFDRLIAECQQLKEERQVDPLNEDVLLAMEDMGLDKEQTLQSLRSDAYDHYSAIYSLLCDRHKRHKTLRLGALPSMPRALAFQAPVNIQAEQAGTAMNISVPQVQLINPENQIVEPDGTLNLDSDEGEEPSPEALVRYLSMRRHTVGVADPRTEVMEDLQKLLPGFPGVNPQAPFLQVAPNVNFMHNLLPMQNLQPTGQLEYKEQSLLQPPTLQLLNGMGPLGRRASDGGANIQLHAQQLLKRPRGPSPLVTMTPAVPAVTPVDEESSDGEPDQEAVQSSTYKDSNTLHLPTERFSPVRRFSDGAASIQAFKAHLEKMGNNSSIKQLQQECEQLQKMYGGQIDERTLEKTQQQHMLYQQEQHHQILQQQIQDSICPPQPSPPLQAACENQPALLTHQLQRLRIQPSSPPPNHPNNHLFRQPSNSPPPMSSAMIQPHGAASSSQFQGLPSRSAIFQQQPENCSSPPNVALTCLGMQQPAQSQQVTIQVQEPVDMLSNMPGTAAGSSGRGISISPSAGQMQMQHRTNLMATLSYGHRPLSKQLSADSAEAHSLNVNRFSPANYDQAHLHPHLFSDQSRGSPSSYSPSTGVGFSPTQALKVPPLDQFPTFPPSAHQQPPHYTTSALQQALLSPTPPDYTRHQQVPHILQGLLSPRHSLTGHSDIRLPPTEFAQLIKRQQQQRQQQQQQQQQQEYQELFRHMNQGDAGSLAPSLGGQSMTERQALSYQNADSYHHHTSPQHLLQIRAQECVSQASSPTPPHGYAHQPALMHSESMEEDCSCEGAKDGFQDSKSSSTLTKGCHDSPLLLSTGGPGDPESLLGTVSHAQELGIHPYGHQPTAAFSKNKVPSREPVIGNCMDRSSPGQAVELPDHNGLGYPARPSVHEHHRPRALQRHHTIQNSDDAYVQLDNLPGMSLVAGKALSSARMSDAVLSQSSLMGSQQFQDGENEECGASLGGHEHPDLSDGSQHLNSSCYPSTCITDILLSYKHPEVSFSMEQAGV

SMILES	IC50 (Recombinant SIK2) [nM]	IC50 (SIK3) [nM]	CRTC2 Efficacy (% of forskolin) (CRTC2 (TORC2))	IC50 [1, 3] [nM]	RANKL Fold Induction (RANKL) [fold]	IC50 (SIK1) [nM]	IC50 [1] [nM]	bone density / bone mass and bone formation ([2]; OVX mice, once daily for 4 weeks, PTH 100 mcg/d, YKL-05-099 18 mg/kg)	BUN levels / renal function [2, 4]	fasting glucose [2, 4]
CC1(COc2ccc3c(c2)ncn3-c2ccc3cccc(N4CCC5(CCN5)CC4)c3n2)COC1 [Example 3, 2-(5-((3-methyloxetan-3-yl)methoxy)-1H-benzo[d]imidazol-1-yl)-8-(1,7-diazaspiro[3.5]nonan-7-yl)quinoline]	0.979	2.24	88.5 % of forskolin	8.86	57.08	18.4	–	–	–	–
CC1(COc2ccc3c(c2)ncn3-c2ccc3cccc(N4CC(N)C4)c3n2)COC1 [Example 7, 1-(2-(5-((3-methyloxetan-3-yl)methoxy)-1H-benzo[d]imidazol-1-yl)quinolin-8-yl)azetidin-3-amine]	8.35	11.5	89 % of forskolin	43.2	30.37	138	–	–	–	–
COCCN1CCC12CCN(c1cccc3ccc(-n4cnc5cc(OCC6(C)COC6)ccc54)nc13)CC2 [Example 12, 8-[1-(2-Methoxyethyl)-1,7-diazaspiro[3.5]nonan-7-yl]-2-[5-[(3-methyloxetan-3-yl)methoxy]benzimidazol-1-yl]quinoline]	4.9	11.9	37.6 % of forskolin	–	62.52	140	925	–	–	–
N#Cc1ccc(-c2cnc3cc(C(=O)NCc4nc5ccccc5[nH]4)ccn23)cc1 [Example 22, N-((1H-benzo[d]imidazol-2-yl)methyl)-3-(4-cyanophenyl)imidazo[1,2-a]pyridine-7-carboxamide]	5.58	497	12.9 % of forskolin	117	1.19	13000	–	–	–	–
N#Cc1ccc(-c2cnc3cc(C(=O)NCc4cn5ccccc5n4)ccn23)cc1 [Example 24, 3-(4-cyanophenyl)-N-(imidazo[1,2-a]pyridin-2-ylmethyl)imidazo[1,2-a]pyridine-7-carboxamide]	11.4	835	21.2 % of forskolin	42.1	2.24	12500	–	–	–	–
COc1ccc(OC)c(-c2cnc3cc(C(=O)NCc4cccnc4)ccn23)c1 [Example 31, 3-(2,5-dimethoxyphenyl)-N-(3-pyridylmethyl)imidazo[1,2-a]pyridine-7-carboxamide]	–	76.1	31.2 % of forskolin	–	0.90	409	4020	–	–	–
N#Cc1ccc(-n2cnc3cc(C(=O)NCc4cn5ccccc5n4)ccc32)cc1 [Example 33, 1-(4-cyanophenyl)-N-(imidazo[1,2-a]pyridin-2-ylmethyl)-1H-benzo[d]imidazole-5-carboxamide]	14.2	2550	21.7 % of forskolin	44.8	0.92	5420	–	–	–	–
N#Cc1ccc(-c2cnn3cc(C(=O)NCc4nc5cccnc5[nH]4)ccc23)cc1 [Example 35, 3-(4-Cyanophenyl)-N-(3H-imidazo[4,5-b]pyridin-2-ylmethyl)pyrazolo[1,5-a]pyridine-6-carboxamide]	7.55	103	8.9 % of forskolin	–	0.39	2090	93.2	–	–	–
N#Cc1ccc(-c2cnn3cc(C(=O)NCc4cccnc4)ccc23)cc1 [Example 37, 3-(4-Cyanophenyl)-N-(3-pyridylmethyl)pyrazolo[1,5-a]pyridine-6-carboxamide]	32.5	310	40.6 % of forskolin	116	1.17	775	–	–	–	–
N#Cc1ccc(-c2cnc3cc(-c4cnn(C5CC5)c4)ccn23)cc1 [Example 49, 4-(7-(1-cyclopropyl-1H-pyrazol-4-yl)imidazo[1,2-a]pyridin-3-yl)benzonitrile]	0.101	1.43	92.2 % of forskolin	1.36	6.31	2.16	–	–	–	–
CCc1nnc(-c2ccc(-c3cnc4cc(-c5cnn(C)c5)ccn34)cc2OC)o1 [Example 57, 2-ethyl-5-(2-methoxy-4-(7-(1-methyl-1H-pyrazol-4-yl)imidazo[1,2-a]pyridin-3-yl)phenyl)-1,3,4-oxadiazole]	8.76	11	–	90.8	13.68	90.8	–	–	–	–
COc1cc(-c2cnc3cc(C(=O)NCc4ccc(C)nc4)ccn23)cc(OC)c1C(=O)NCC(F)(F)F [Example 68, 3-[3,5-Dimethoxy-4-(2,2,2-trifluoroethylcarbamoyl)phenyl]-N-[(6-methyl-3-pyridyl)methyl]imidazo[1,2-a]pyridine-7-carboxamide]	12.4	8.67	12 % of forskolin	–	2.88	94.7	–	–	–	–
COc1ccc(N2C(=O)N(c3c(C)cccc3Cl)Cc3cnc(Nc4ccc(C5CCN(C)CC5)cc4OC)nc32)nc1 [YKL-05-099]	–	–	–	–	–	–	–	comparable/superior efficacy; also recorded: increase bone density and bone formation rate	impaired renal function; also recorded: increased	hyper-glycemia; also recorded: increased
